Where two headings read alike, the source gives them in different places.
Tests used:
[1] = system: human progesterone (P) receptor; assay: Relative progesterone receptor binding affinity, cytoplasmic receptors of MCF-7 cells; settings: relative to (16α)-16-ethyl-21-hydroxy-19-norpregn-4-ene-3,20-dione, 16 h, 4° C
[2] = Allen Doisy test for estrogenic activity in vivo; settings: read-out: AllenDoisy ED50
[3] = McPhail test for progestagenic activity in vivo; settings: read-out: McPhail ED50
ovariectomised rats = assay: Prevention of ovariectomy-induced bone loss in rats (anti-osteoporosis test, pQCT trabecular bone mineral density); type: in vivo, rat (female Wistar); settings: Rattus norvegicus, 672 h, read-out: Osteoporosis ED50
From the text: Ovariectomy induces in rats bone loss, which is due to oestrogen deficiency. Administration of oestrogenic compounds prevents this effect. The test is used to evaluate a compound for anti-osteoporotic activity in ovariectomised rats. The effect on bone mass can be evaluated by peripheral Quantitave Computed Tomography (pQCT) measurement of trabecular bone mineral density.
Mature virgin female Wistar rats preferentially, 225-250 g. Strain: Hsd/Cpd:Wu, SPF-bred by Harlan, CPB, Zeist, The Netherlands.
On day 1 of the experiment the rats are weighed and distributed over the cages in order of body weight. The rat with the lowest body weight in the first cage and the heaviest rat in the last cage. Treatments are randomized over the rats per block. A block (group of 3+n treatments) consists of 1 Intact placebo rat, 1 OVX placebo rat, 1 OVX reference rat and 1 rat of each n treatments.
Sham-operation and ovariectomy are performed under ether anaesthesia. After recovery from the anaesthesia, within 24 h, vehicle, reference compound or test compound is administered once or twice daily for 4 weeks.
Trabecular bone mineral density (mg/cm^3) of the metaphyseal part of the femur was measured with a pQCT (peripheral Quantitative Computed Tomography machine; XCT 960A, Stratec, Birkenfeld, Germany) directly after autopsy on fresh tissue. Two 360° scans, which have, due to the X-ray beam, a standard thickness of 1 mm were taken. The scans have a resolution of 0.148×0.148 mm. One scan was taken at 5.5 mm from the distal end of the femur, where trabecular bone mineral density of the metaphyseal part was measured. The other scan was taken in the diaphysis at 13.5 mm from the distal end, which contains no trabecular bone. In the latter scan cortical bone mineral density and the geometrical parameters, such as cortical thickness, total bone area, outer and inner diameter, were determined. Intra- and inter-assay variation for the measurement of trabecular bone mineral density in the distal femur were about 2-3%. The XCT-960A was calibrated with a standard of hydroxyapatite embedded in acrylic plastic.
Ovariectomy causes a statistically significant decrease in trabecular bone mineral density (P≤0.05, 2 way ANOVA).
The active dose (ED50) is the dose where a mean proportional difference in trabecular bone mineral density between 40 and 60% is reached as compared to the sham and ovariectomised group.
(§1) Several of the compounds according to the Examples I-VI, as well as other compounds according to the invention synthesized in analogous manner, were subjected to the tests described in the Examples VII and VIII. The results are described in the Table, in which the type of A-ring and the substitution at carbon atoms nos. 7, 11, and 17 is indicated. In the columns captioned E and P, the relative binding affinities for the estrogen and progesterone receptors are given; the ED50 results of the AllenDoisy and the McPhail tests have been indicated in μg/kg. In the column captioned "Osteoporosis", the ED50 results of the anti-osteoporosis test are given (dose in μg/kg, day, as described above).

[4] = target: T1, human estradiol (E) receptor (Homo sapiens, UniProt P03372); type: binding
T1 construct: present in human breast tumor cells (MCF-7 cells); endogenous in cells; host or cells: MCF-7 human breast tumor cells
T1 sequence (P03372 1-595): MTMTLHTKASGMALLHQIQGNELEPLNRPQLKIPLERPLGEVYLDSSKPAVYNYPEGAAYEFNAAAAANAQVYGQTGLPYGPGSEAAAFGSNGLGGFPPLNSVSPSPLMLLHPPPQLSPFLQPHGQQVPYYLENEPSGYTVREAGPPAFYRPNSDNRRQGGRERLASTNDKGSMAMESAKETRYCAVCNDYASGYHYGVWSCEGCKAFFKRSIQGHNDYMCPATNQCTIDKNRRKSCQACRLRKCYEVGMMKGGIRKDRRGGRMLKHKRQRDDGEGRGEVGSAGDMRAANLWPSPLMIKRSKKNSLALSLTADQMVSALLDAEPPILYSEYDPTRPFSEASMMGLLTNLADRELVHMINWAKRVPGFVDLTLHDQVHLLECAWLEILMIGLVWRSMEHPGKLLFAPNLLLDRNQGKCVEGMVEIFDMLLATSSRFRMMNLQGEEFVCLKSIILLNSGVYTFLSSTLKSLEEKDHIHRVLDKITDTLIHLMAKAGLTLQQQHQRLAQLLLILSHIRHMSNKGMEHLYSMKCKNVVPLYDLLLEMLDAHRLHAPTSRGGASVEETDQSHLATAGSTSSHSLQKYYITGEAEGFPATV
Description: The relative estradiol receptor binding affinity was measured in the same manner as described above but using 17βestradiol as a reference.
as §1

[5] = oral administration, estrogenic activity
[6] = oral administration, progestagenic activity
[7] = oral administration, ovariectomised rats, once or twice daily for 4 weeks, 40-60% proportional difference in trabecular bone mineral density

Row | Structure (SMILES) | Relative binding affinity to the human progesterone (P) receptor [1] [%] | ED50 [2, 5] [mg/kg] | ED50 [3, 6] [mg/kg] | ED50 (ovariectomised rats; [7]) [mg/kg] | ED50 ([2]; po) [mg/kg] | ED50 ([3]; po) [mg/kg] | ED50 (ovariectomised rats; po) [mg/kg] | Relative binding affinity to the human estradiol (E) receptor [4] [%]
1 | CCC[C@@H]1C[C@@H]2C[C@H]3[C@@H]4CCC5=C(CCC(=O)C5)[C@H]4[C@@H](CC)C[C@]3(C)[C@]2(O)C1 [Code 38151] | 8 | 0.125 | > 1 | – | – | – | – | –
2 | C[C@H]1C[C@@]2(C)[C@@H](C[C@H]3C[C@H](CN=[N+]=[N-])C[C@]32O)[C@@H]2CCC3=CC(=O)CC[C@@H]3[C@H]21 [Code 38322] | 44 | > 0.5 | 0.063 | > 1 | – | – | – | –
3 | C[C@H]1C[C@@H]2C[C@H]3[C@@H]4CCC5=CC(=O)CC[C@@H]5[C@H]4CC[C@]3(C)[C@]2(O)C1 [Code 38541] | 58 | – | – | – | > 0.5 | 0.125 | > 1 | –
4 | CCC[C@H]1C[C@@H]2C[C@H]3[C@@H]4CCc5cc(O)ccc5[C@H]4CC[C@]3(C)[C@]2(O)C1 [Code 37969] | 25 | > 1 | 4 | > 1 | – | – | – | 3
5 | CCC[C@@H]1Cc2cc(O)ccc2[C@H]2CC[C@@]3(C)[C@@H](C[C@@H]4C[C@@H](C)C[C@@]43O)[C@H]12 [Code 38513] | – | 2 | > 0.125 | – | – | – | – | 0.2
6 | CC[C@H]1C[C@@]2(C)[C@@H](C[C@H]3CCCC[C@]32O)[C@@H]2CCc3cc(O)ccc3[C@@H]12 [Code 37862] | 2 | 0.032 | – | < 0.016 | – | – | – | 96
7 | CC[C@H]1C[C@@H]2C[C@H]3[C@@H]4CCC5=CC(=O)CC[C@@H]5[C@H]4[C@@H](CC)C[C@]3(C)[C@]2(O)C1 [Code 38610] | 0.3 | 0.032 | > 0.125 | 0.125 | – | – | – | –
8 | C[C@]12CC[C@@H]3c4ccc(O)cc4CC[C@H]3[C@@H]1C[C@H]1CCCC[C@]12O [Code 37469] | 23 | > 4 | > 2 | > 4 | – | – | – | 1
9 | CCC[C@@H]1Cc2cc(O)ccc2[C@H]2CC[C@@]3(C)[C@@H](C[C@H]4CCCC[C@]43O)[C@H]12 [Code 38515, (7-alpha,16-alpha,17-alpha)-7-propyl-16,24-cyclo-19,21-dinorchola-1,3,5(10)-trien-3,17-diol] | 10 | 0.096 | 4 | 0.19 | – | – | – | 16
10 | C[C@H]1C[C@@H]2C[C@H]3[C@@H]4[C@H](C)Cc5cc(O)ccc5[C@H]4CC[C@]3(C)[C@]2(O)C1 [Code 37893] | 11 | 0.5 | > 4 | 0.5 | – | – | – | 38
11 | C[C@@H]1Cc2cc(O)ccc2[C@H]2CC[C@@]3(C)[C@@H](C[C@H]4CCCC[C@]43O)[C@H]12 [Code 37828] | 10 | 0.192 | – | 0.5 | – | – | – | 11
12 | CCC[C@@H]1CC2=CC(=O)CC[C@@H]2[C@H]2CC[C@@]3(C)[C@@H](C[C@H]4C[C@@H](C)C[C@]43O)[C@H]12 [Code 38550] | 36 | 0.125 | > 0.125 | 0.125 | – | – | – | –
13 | C[C@]12CC[C@H]3[C@@H](CCC4=CC(=O)CC[C@@H]43)[C@@H]1C[C@H]1CCCC[C@]12O [Code 37518] | 115 | – | – | – | > 4 | 0.125 | > 2 | –
14 | CCC[C@H]1C[C@H]2C[C@H]3[C@@H]4[C@H](C)Cc5cc(O)ccc5[C@H]4CC[C@]3(C)[C@@]2(O)C1 [Code 38079] | 1 | > 4 | – | – | – | – | – | < 1
15 | CCC[C@H]1C[C@@H]2C[C@H]3[C@@H]4CCC5=CC(=O)CC[C@@H]5[C@H]4CC[C@]3(C)[C@]2(O)C1 [Code 37977] | 151 | – | – | – | > 4 | 0.5 | > 1 | –
16 | C[C@]12CC[C@@H]3C4=C(CC[C@H]3[C@@H]1C[C@H]1CCCC[C@]12O)CC(=O)CC4 [Code 37516] | 13 | > 4 | 1 | > 2 | – | – | – | –
17 | CCC[C@@H]1Cc2cc(O)ccc2[C@H]2CC[C@@]3(C)[C@@H](C[C@H]4C[C@H](C)C[C@]43O)[C@H]12 [Code 38481, (4'S,7-alpha,16-beta, 17-beta)-3',4',5',16-tetrahydro-4'-methyl-7-propyl-17H-cyclopenta[16,17]estra-1,3,5(10)-trien-3,17-diol] | 6 | 0.064 | > 4 | 0.125 | – | – | – | 23
18 | CCC[C@H]1C[C@@H]2C[C@H]3[C@@H]4CCC5=CC(=O)CC[C@@H]5[C@H]4[C@@H](CC)C[C@]3(C)[C@]2(O)C1 [Code 38577] | 139 | 0.192 | > 0.5 | 0.25 | – | – | – | –
19 | CCCC[C@@H]1C[C@@H]2C[C@H]3[C@@H]4CCC5=CC(=O)CC[C@@H]5[C@H]4[C@@H](C)C[C@]3(C)[C@]2(O)C1 [Code 38276, (4'R,11-beta,16-beta-17-beta)-4'-butyl-4',5',16,17-tetrahydro-17-hydroxy-11-methyl-3'H-cyclopenta[16,17]estra-4,16-dien-3-one] | 115 | > 0.5 | 0.125 | > 1 | – | – | – | –
20 | CCC[C@@H]1C[C@@H]2C[C@H]3[C@@H]4CCc5cc(O)ccc5[C@H]4CC[C@]3(C)[C@]2(O)C1 [Code 37968] | 6 | > 1 | > 4 | – | – | – | – | 1
21 | CC[C@H]1C[C@@]2(C)[C@@H](C[C@H]3CCCC[C@]32O)[C@@H]2CCC3=CC(=O)CC[C@@H]3[C@@H]12 [Code 37943] | 96 | – | – | – | 0.192 | 1 | 0.4 | –
22 | C[C@H]1C[C@@H]2C[C@H]3[C@H]4[C@H](CC[C@]3(C)[C@]2(O)C1)[C@H]1CCC(=O)C=C1C[C@H]4C [Code 38049] | 250 | – | – | – | > 2 | 1 | > 1 | –

From patent US6313180A, “Steroid compounds having contraceptive and anti-osteoporosis activity” (priority 1997, dated 2001)
